Reference: patent publication US20240277781A1, “Compositions Comprising Microbes and Methods of Use and Making Thereof” (Pendulum Therapeutics, Inc., priority 2021, published 2024)

Tests used:
[1] = test system: formulation strains (AMUC, BINF, CBEI, CBUT, EHAL); format: cell-based
[2] = taken orally; cited from earlier work

SMILES | growth inhibition of formulation strains (yield decrease, lag increase) [1] | fecal elimination percentage [2] | plasma half-life [2]
CCC1=C(C)CN(C(=O)NCCc2ccc(S(=O)(=O)NC(=O)N[C@H]3CC[C@H](C)CC3)cc2)C1=O [glimepiride] | largest inhibitory effect overall | 40% | 5 to 8 h
Cc1cnc(C(=O)NCCc2ccc(S(=O)(=O)NC(=O)NC3CCCCC3)cc2)cn1 [glipizide] |  | 10% | 
COc1ccc(Cl)cc1C(=O)NCCc1ccc(S(=O)(=O)NC(=O)NC2CCCCC2)cc1 [glyburide] | largest inhibitory effect overall | 50% | 4 to 10 h
